Measured values from US10548870B2, “Method for treating multiple sclerosis” (OLATEC THERAPEUTICS LLC, priority 2017, dated 2020).

Assays:
Type in all cases: in vivo, C57Bl/6 mice
[1] = system: experimental allergic encephalomyelitis (EAE) mice; assay: Prophylactic intraperitoneal treatment of dapansutrile in EAE mice; details: 60 mg/kg i.p. twice daily, Day 0 to Day 21
Method: (§1) Active immunization was done in female adult (8 weeks old) C57Bl/6 mice. Briefly, mice were subcutaneously injected with […] of myelin oligodendrocyte glycoprotein (MOG)35-55 peptide ([…], SEQ ID NO: 1) emulsified in complete Freund's Adjuvant (Sigma Aldrich) supplemented with 4 mg of micobacterioum tuberculosis H37RA (DIFCO Laboratories). On day 0 and 2 post-immunization, mice were also injected intraperitoneally (i.p.) with 500 ng of pertussis toxin (List Biological Laboratories).
Starting on day 0 (day of immunization), mice were injected intraperitoneally twice daily with dapansutrile (OLT1177™, 60 mg/kg) or saline until the end of the study (Day 21). Each treated group had 10 mice.
Animals were monitored daily for signs of EAE and the scoring system is as follows: 0=no clinical symptoms, normal walking; 0.5=partial paralyzed tail, 1=fully paralyzed tail; 2=mild hind-limb weakness, quick righting reflex; 3=severe hind-limb weakness, slow righting reflex, unable to bear weight; 3.5=severe hind-limb weakness and partial paralysis of hind limb; 4=complete paralysis of at least one hind limbs; 4.5=complete paralysis of one or both one hind limbs and trunk weakness; 5=complete paralysis of one or both hind limbs, forelimb weakness or paralysis; 6=mouse is found dead by EAE. […]

[2] = system: experimental allergic encephalomyelitis (EAE) mice; assay: Prophylactic oral treatment (dapansutrile-enriched diet) in EAE mice
Method: as §1
(§2) Animals were monitored daily for signs of EAE and the scoring system is as follows: 0=no clinical symptoms, normal walking; 0.5=partial paralyzed tail, 1=fully paralyzed tail; 2=mild hind-limb weakness, quick righting reflex; 3=severe hind-limb weakness, slow righting reflex, unable to bear weight; 3.5=severe hind-limb weakness and partial paralysis of hind limb; 4=complete paralysis of at least one hind limbs; 4.5=complete paralysis of one or both one hind limbs and trunk weakness; 5=complete paralysis of one or both hind limbs, forelimb weakness or paralysis; 6=mouse is found dead by EAE.
(§3) EAE mice were euthanized at either day 21 or 23 post-immunization with an overdose of pentobarbital sodium (Dolethal) and transcardially perfused with 4% paraformaldehyde (PFA) in 0.1M phosphate buffer (PB). Lumbar segments of spinal cords were harvested, post-fixed in 4% PFA for 2 hours and cryoprotected in 30% sucrose in 0.1M at 4° C. for at least 48 hours. Spinal cords were embedded in TissueTek OCT (Sakura), cut in transversal sections (15 μm-thick) with a cryostat (Leica) between L3 and L5 segments and serially picked up on gelatine-coated glass slides. Samples were stored at −20° C.
(§4) Sections were stained with Luxol Fast Blue (LFB) (Sigma Aldrich). Briefly, after a graded dehydration, sections were placed in 1 mg/mL of LFB solution in 96% EtOH and 0.05% acetic acid overnight at 37° C. and protected from light. Then, slides were washed with 96% EtOH, rehydrated in distilled water and placed in a 0.5 mg/mL Li2CO3 solution for 3-5 minutes at room temperature. Finally, sections were washed in distilled water, dehydrated again in 100% EtOH and mounted in DPX (Sigma Aldrich). To assess the demyelinated area in the spinal cord, 6 random images per mice were captured at 10× magnification with an Olympus BX51 and the attached Olympus DP73 Camera. The total demyelinated area within the spinal cord was measured with Image J image analysis software.
(§5) EAE induction, functional assessment, and histological analysis were the same as those described in Example 2.
Starting on day 0 (day of immunization), EAE-mice were fed either a dapansutrile-enriched diet or a standard diet. […]

[3] = system: experimental allergic encephalomyelitis (EAE) mice; assay: Oral gavage treatment with dapansutrile in EAE mice starting at disease onset
Method: as §1, §2, §3, §4, §5
60 mg/kg of dapansutrile was solubilized with distilled water and administered daily by oral gavage at 60 mg/kg animal weight to mice twice per day. […] Control mice were administered distilled water at the same days. […]

[4] = diet with 3.75 g dapansutrile per kg food, Day 0 to Day 23, vs standard diet (FIG. 2B)
[5] = 60 mg/kg oral gavage twice daily from disease onset, vs vehicle (FIG. 3B)

SMILES: CS(=O)(=O)CCC#N [dapansutrile, 3-methanesulfonylpropionitrile]
- demyelination in the lumbar spinal cord (LFB staining) ([1]; vs saline (FIG. 1B)): reduced the demyelination in the spinal cord
- EAE clinical score ([1]; vs saline, significant from day 11 to day 21 (FIG. 1A)): significant lower disease scores
- daily EAE clinical scores after disease onset ([2]; diet with 3.75 g dapansutrile per kg food (about 50 mg/kg/day), Day 0 to Day 23, vs standard diet (FIG. 2A)): lower daily EAE clinical scores
- cumulative EAE score [2, 4]: lower cumulative EAE scores
- maximum EAE score [2, 4]: lower maximum EAE scores
- reduction of demyelination in the spinal cord ([2]; diet with 3.75 g dapansutrile per kg food, 23 days after immunization, vs standard food (FIG. 2C)): about 2 fold
- reduction in the EAE score compared to vehicle ([3]; 60 mg/kg oral gavage twice daily from disease onset (FIG. 3A)): about 1 point
- cumulative clinical EAE score [3, 5]: significantly reduced
- maximum clinical EAE score [3, 5]: significantly reduced
- demyelination in LFB stained spinal cords ([3]; 60 mg/kg oral gavage twice daily from disease onset, vs vehicle (FIG. 3C)): protection against demyelination
